The target of data set [1] is T1, PSMA (Homo sapiens, UniProt Q04609).
T1 construct: endogenous in cells; host or cells: LNCaP cells
The data set is described as follows: Determination of IC50: PSMA affinity, competition with ([125I]I-BA)KuE on LNCaP cells. It counts as binding. Conditions: LNCaP cells, [125I]IB-KuE 0.2 nM, 1 h, 4 °C. As to the method: After removal of the culture medium, the cells were treated once with 500 μL of HBSS (Hank's balanced salt solution, Biochrom, Berlin, Germany, with addition of 1% bovine serum albumin (BSA)) and left 15 min on ice for equilibration in 200 μL HBSS (1% BSA). […] Quantification of bound and free radioligand was accomplished in a γ-counter.

The nature of data set [2]: Octanol-water partition coefficient (n-octanol/PBS pH 7.4). The data set is classed as physicochemical. As to the method:
Approximately 1 MBq of the labeled tracer was dissolved in 1 mL of a 1:1 mixture (by volumes) of phosphate buffered saline (PBS, pH 7.4) and n-octanol in an Eppendorf tube. After vigorous mixing of the suspension for 3 minutes at room temperature, the vial was centrifuged at 15000 g for 3 minutes (Biofuge 15, Heraus Sepatech, Osterode, Germany) and 100 μL aliquots of both layers were measured in a gamma counter. The experiment was repeated at least six times.
Determianation of the logP values was carried out in phosphate buffered saline (PBS, pH 7.4) and n-octanol (=logPoct/PBS).

Data set [3] in a line: Metabolic stability and 18F/19F isotopic exchange in mouse urine (radio-HPLC, radio-TLC). It counts as in vitro ADME, mice. On the procedure:
Analytical reversed-phase high pressure chromatography (RP-HPLC) were performed using Shimadzu gradient systems (Shimadzu Deutschland GmbH, Neufahrn, Germany), equipped with a SPD-20A UV/Vis detector (220 nm, 254 nm). […] Eluents for all HPLC operations were water (solvent A) and acetonitrile (solvent B), both containing 0.1% trifluoroacetic acid. […] The gradient for all HPLC operations was: 5% B isocratic 0-3 min, 25-35% B 3-43 min, 95-95% B 43-48 min.
For radio-thin-layer chromatography, aluminum sheets coated with silica gel 60 RP-18 F254s were used with a mobile phase consisting of a 3:2 mixture (v/v) of MeCN in H2O supplemented with 10% of 2 M aqueous NaOAc and 1% of TFA. Analysis was performed using either a Scan-RAM radio-TLC detector (LabLogic Systems Ltd., Sheffield, United Kingdom) or a CR 35 BIO phosphorimager (Duerr Medical GmbH, Bietigheim-Bissingen, Germany).
For in vivo μmetabolism studies, 8-12 MBq (<0.6 nmol) of the respective ^18F-labeled ligand (rhPSMA-7.1-7.4) was injected into the tail vein of female healthy CB17-SCID mice (n=4). Mice were left under anesthesia for 30 min and the urine was collected using a bladder catheter. Urine samples were pooled and centrifuged for 5 min at 9000 rpm to remove suspended solids. The supernatant was directly used for radio-HPLC analysis with the above mentioned conditions. […]

In data set [4] the test system is LNCaP tumor-bearing CB-17 SCID mice. Conditions: male, mouse, in vivo, 1 h.
Description: (§1) To establish tumor xenografts, LNCaP cells (10^7 cells/200 μL) were suspended in a 1:1 mixture (v/v) of Dulbecco modified Eagle medium/Nutrition Mixture F-12 with Glutamax-I (1:1) and Matrigel (BD Biosciences, Germany), and inoculated subcutaneously onto the right shoulder of 6-8 weeks old CB17-SCID mice (Charles River, Sulzfeld, Germany). Mice were used for when tumors had grown to a diameter of 5-8 mm (3-4 weeks after inoculation).
(§2) Approximately 1-2 MBq (<0.2 nmol) of the ^18F-labeled PSMA inhibitor was injected into the tail vein of LNCaP tumor-bearing male CB-17 SCID mice and sacrificed after 1 h post injection (n=4-5). Selected organs were removed, weighted and measured in a γ-counter
Data set [5] has the same test system. Nature of the data set: Biodistribution in LNCaP tumor-bearing SCID mice, 1 h p.i., with or without PMPA.
Description: as §1, §2

Values joined by “and” are separate entries in the source; they are usually repeats but may differ in a detail not shown here. Equal values may be shown once. Read-outs that look alike come from different tables or passages of the source.

Consider 2 compounds from US12377176B2, “Cancer diagnostic imaging agents” (Technische Universität München, priority 2019, dated 2025).

T1 sequence (Q04609 whole entry): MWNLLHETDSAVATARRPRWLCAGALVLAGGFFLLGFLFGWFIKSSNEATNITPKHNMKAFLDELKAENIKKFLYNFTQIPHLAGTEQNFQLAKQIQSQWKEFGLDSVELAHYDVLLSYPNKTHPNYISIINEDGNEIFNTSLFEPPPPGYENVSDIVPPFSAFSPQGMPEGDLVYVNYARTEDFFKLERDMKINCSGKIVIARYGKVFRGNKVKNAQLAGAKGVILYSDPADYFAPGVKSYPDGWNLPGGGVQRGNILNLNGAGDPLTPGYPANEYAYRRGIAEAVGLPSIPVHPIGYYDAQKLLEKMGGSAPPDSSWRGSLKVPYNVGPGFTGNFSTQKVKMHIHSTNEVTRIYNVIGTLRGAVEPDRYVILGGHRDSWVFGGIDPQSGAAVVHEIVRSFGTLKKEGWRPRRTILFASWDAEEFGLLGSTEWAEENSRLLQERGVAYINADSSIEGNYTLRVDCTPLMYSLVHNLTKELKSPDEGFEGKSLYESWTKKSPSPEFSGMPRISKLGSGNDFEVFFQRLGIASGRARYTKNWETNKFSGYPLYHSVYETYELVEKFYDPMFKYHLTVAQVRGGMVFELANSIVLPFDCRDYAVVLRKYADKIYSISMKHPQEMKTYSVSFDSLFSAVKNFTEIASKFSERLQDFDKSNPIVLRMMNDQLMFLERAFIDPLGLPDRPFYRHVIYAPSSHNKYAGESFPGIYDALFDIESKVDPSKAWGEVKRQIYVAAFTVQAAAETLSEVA

A word on the IC50: it is the concentration that gives 50% inhibition. `CC(C)(C)[Si](F)(c1ccc(C(=O)NC[C@@H](NC(=O)CC[C@@H](C(=O)O)N2CCN(CC(=O)O)CCN(CC(=O)O)CCN(CC(=O)O)CC2)C(=O)N[C@H](CCCCNC(=O)CCC(=O)NCCC[C@@H](NC(=O)CC[C@H](NC(=O)N[C@@H](CCC(=O)O)C(=O)O)C(=O)O)C(=O)O)C(=O)O)cc1)C(C)(C)C` [rhPSMA7.3, [^19F][^natGa]D-Dap-S-DOTAGA-rhPSMA7, metal not drawn]: the IC50 in data set [1] (HBSS+1% BSA, single measurements, read-out: individual IC50 measurements) is 3.17 nM and 2.91 nM and 5.35 nM and 5.74 nM and 4.59 nM and 4.45 nM. Also, the IC50 in data set [1] (mean of the individual measurements, read-out: IC50 Mean) was 4.37 nM. Besides, in data set [2] (n-octanol/PBS, pH 7.4, octanol/PBS7.4, mean of individual measurements, read-out: log P Mean), the logP was -3.26. The “individual log P measurements” value in data set [2] (octanol/PBS7.4, single measurements) was −3.02 and −3.06 and −3.07 and −2.86 and −3.39 and −3.33 and −3.34 and −3.20 and −3.40 and −3.41 and −3.48 and −3.49 and −3.32 and −3.45 and −3.53 and −3.43 and −3.56 and −3.03 and −3.08. For the same compound, the “[F-18]rhPSMA7.3 share of radioactivity in urine” value in data set [3] (after addition of 5 nmol [F-19]rhPSMA7-3, room temperature) is 85.8%. Also, in data set [3] (radioactive urine before addition of cold [F-19]rhPSMA7.3), the “[F-18]rhPSMA7.3 share of radioactivity in urine” value was determined as 79.4%. For the same compound, in data set [4], the Biodistribution adrenals was determined as 2.2 ± 0.83 % ID/g, the Biodistribution blood is on record as 0.96 ± 0.24 % ID/g, the Biodistribution bone was determined as 0.38 ± 0.32 % ID/g and the Biodistribution heart amounted to 0.87 ± 0.17 % ID/g. Also, in data set [4], the Biodistribution intestine is given as 0.35 ± 0.07 % ID/g, the Biodistribution kidneys stood at 292 ± 45.1 % ID/g, the Biodistribution liver is reported as 0.69 ± 0.13 % ID/g and the Biodistribution lung is given as 2.2 ± 0.35 % ID/g. In data set [4], this compound came in with a Biodistribution muscle of 0.33 ± 0.15 % ID/g, a Biodistribution pancreas of 0.63 ± 0.44 % ID/g, a Biodistribution spleen of 16.6 ± 2.6 % ID/g and a Biodistribution stomach of 0.44 ± 0.23 % ID/g. Further, the Biodistribution tumor in data set [4] is reported as 18.3 ± 7.2 % ID/g.

In data set [5], “[^19F][^natGa]D/L-Dap-R/S-DOTAGA-rhPSMA7 [rhPSMA7-rac]” returned a Biodistribution adrenals of 3.0 ± 0.45 % ID/g, a Biodistribution blood of 1.1 ± 0.03 % ID/g, a Biodistribution bone of 0.91 ± 0.11 % ID/g and a Biodistribution heart of 0.69 ± 0.07 % ID/g. In data set [5], this compound yielded a Biodistribution intestine of 0.60 ± 0.27 % ID/g, a Biodistribution kidneys of 71.3 ± 13.3 % ID/g, a Biodistribution liver of 0.67 ± 0.07 % ID/g and a Biodistribution lung of 1.4 ± 0.17 % ID/g. In addition, in data set [5], the Biodistribution muscle is reported as 0.36 ± 0.06 % ID/g, the Biodistribution pancreas was 0.60 ± 0.10 % ID/g, the Biodistribution spleen is 11.1 ± 2.3 % ID/g and the Biodistribution stomach is listed as 0.49 ± 0.07 % ID/g. For the same compound, in data set [5], the Biodistribution tumor was 10.4 ± 0.67 % ID/g.
